Experiments:
[1] = tested on: primary rat hepatocytes; assay: Microarray gene expression analysis (Affymetrix rat array) of toxin-exposed hepatocytes, with linear discriminant score; assay type: cell-based; conditions: 24 hrs
Description: Identification of toxicity markers was performed by microarray analysis and by the AlamarBlue® assay, a classical measure of cytotoxicity. The AlamarBlue® assay was performed in triplicate.
The source of the primary rat hepatocytes was Sprague Dawley Outbred CDs Rats (CRL:CD®[SD] IGS BR, Charles River Laboratories). […] Primary rat hepatocytes were received the day after the cells were removed from the animals. After arrival, the cells, the cells were incubated overnight (˜15 hrs) before the toxin was added to the cultures. […] Toxin or vehicle was administered to hepatocyte cultures as follows. For each treatment, i.e., vehicle alone, vehicle+toxin at low dose, or vehicle+toxin at high dose, cells were harvested after 3, 6 and 24-hour incubations with the toxin solution or with the vehicle.
More than 10^7 cells are typically prepared for each sample. RNA was collected at 3, 6 and 24 hours following addition of the toxin according to the following procedure.
Each flask contained ˜10-20 million cells. The contents of each flask were mixed vigorously for one minute with a vortex mixer and then aspirated up and down 5 times with a pipette. The contents of each flask (˜12 ml each) was collected into a 50 ml conical polypropylene tissue culture tube (Falcon), snap frozen in liquid nitrogen and stored at ≦−86° C.
Microarray sample preparation was conducted with minor modifications, following the protocols set forth in the Affymetrix GeneChip® Expression Analysis Manual. Frozen cells were ground to a powder using a Spex Certiprep 6800 Freezer Mill. Total RNA was extracted with Trizol (GibcoBRL) utilizing the manufacturer's protocol. […] Double stranded cDNA was generated from mRNA using the SuperScript Choice system (GibcoBRL). First strand cDNA synthesis was primed with a T7-(dT24) oligonucleotide. The cDNA was phenol-chloroform extracted and ethanol precipitated to a final concentration of […]. From 2 μg of cDNA, cRNA was synthesized using Ambion's T7 MegaScript in vitro Transcription Kit.
To biotin label the cRNA, nucleotides Bio-11-CTP and Bio-16-UTP (Enzo Diagnostics) were added to the reaction. Following a 37° C. incubation for six hours, impurities were removed from the labeled cRNA following the RNeasy Mini kit protocol (Qiagen). cRNA was fragmented (fragmentation buffer consisting of 200 mM Tris-acetate, pH 8.1, 500 mM KOAc, 150 mM MgOAc) for thirty-five minutes at 94° C. Following the Affymetrix protocol, 55 μg of fragmented cRNA was hybridized on the Affymetrix rat array set for twenty-four hours at 60 rpm in a 45° C. hybridization oven. The chips were washed and stained with Streptavidin Phycoerythrin (SAPE) (Molecular Probes) in Affymetrix fluidics stations. To amplify staining, SAPE solution was added twice with an anti-streptavidin biotinylated antibody (Vector Laboratories) staining step in between. Hybridization to the probe arrays was detected by fluorometric scanning (Hewlett Packard Gene Array Scanner). Data was analyzed using Affymetrix GeneChip® version 3.0 and Expression Data Mining Tool (EDMT) software (version 1.0), S-Plus, and the GeneExpress® software system.
Each gene is identified by its Gene Logic identification number and can be cross-referenced to a gene name and representative SEQ ID NO. in Table 1.

[2] = tested on: dogs; conditions: dog, in vivo; cited from earlier work

Cl.Nc1nc2c(Cc3ccsc3)c[nH]c2c(=O)[nH]1.O [CI-1000, 4H-pyrrolo:3,2-d:pyrimidin-4-one, 2-amino-3,5-dihydro-7-(3-thienylmethyl)-monohydrochloride monohydrate]
Mean Tox ([1]; GLGC ID NO. 108): 773.3800 | Mean Tox ([1]; GLGC ID NO. 573): 8.6367 | Mean Tox ([1]; GLGC ID NO. 574): 4432.0900 | Mean Tox ([1]; GLGC ID NO. 798): 128.0433 | Mean Tox ([1]; GLGC ID NO. 1348): 71.9967 | Mean Tox ([1]; GLGC ID NO. 1378): 98.1567 | Mean Tox ([1]; GLGC ID NO. 1570): 1078.9433 | Mean Tox ([1]; GLGC ID NO. 1571): 1228.2500 | Mean Tox ([1]; GLGC ID NO. 1728): 390.6900 | Mean Tox ([1]; GLGC ID NO. 1798): 347.1167 | Mean Tox ([1]; GLGC ID NO. 2250): 3776.5600 | Mean Tox ([1]; GLGC ID NO. 2267): 415.0967 | Mean Tox ([1]; GLGC ID NO. 2382): 33.0133 | Mean Tox ([1]; GLGC ID NO. 2909): 422.4233 | Mean Tox ([1]; GLGC ID NO. 2911): 39.1667 | Mean Tox ([1]; GLGC ID NO. 2933): 16.1500 | Mean Tox ([1]; GLGC ID NO. 3246): 236.8700 | Mean Tox ([1]; GLGC ID NO. 3501): 61.2333 | Mean Tox ([1]; GLGC ID NO. 3631): 235.6533 | Mean Tox ([1]; GLGC ID NO. 4636): 424.3433 | Mean Tox ([1]; GLGC ID NO. 4650): 398.0633 | Mean Tox ([1]; GLGC ID NO. 5044): 161.4467 | Mean Tox ([1]; GLGC ID NO. 5258): 68.1000 | Mean Tox ([1]; GLGC ID NO. 5496): 49.0667 | Mean Tox ([1]; GLGC ID NO. 5615): 127.1533 | Mean Tox ([1]; GLGC ID NO. 5899): 33.5000 | Mean Tox ([1]; GLGC ID NO. 6033): 72.8967 | Mean Tox ([1]; GLGC ID NO. 6224): 150.6700 | Mean Tox ([1]; GLGC ID NO. 6291): 87.3167 | Mean Tox ([1]; GLGC ID NO. 6343): 51.9167 | Mean Tox ([1]; GLGC ID NO. 6717): 59.7300 | Mean Tox ([1]; GLGC ID NO. 6996): 165.6633 | Mean Tox ([1]; GLGC ID NO. 7926): 49.1133 | Mean Tox ([1]; GLGC ID NO. 8395): 10.1200 | Mean Tox ([1]; GLGC ID NO. 9309): 142.4767 | Mean Tox ([1]; GLGC ID NO. 9500): 66.0900 | Mean Tox ([1]; GLGC ID NO. 9845): 126.4867 | Mean Tox ([1]; GLGC ID NO. 10138): 43.7667 | Mean Tox ([1]; GLGC ID NO. 10544): 702.1267 | Mean Tox ([1]; GLGC ID NO. 10920): −1.0367 | Mean Tox ([1]; GLGC ID NO. 10986): 12.0067 | Mean Tox ([1]; GLGC ID NO. 11610): 570.7167 | Mean Tox ([1]; GLGC ID NO. 12563): 634.3933 | Mean Tox ([1]; GLGC ID NO. 12580): 37.5533 | Mean Tox ([1]; GLGC ID NO. 13169): 173.3367 | Mean Tox ([1]; GLGC ID NO. 13283): 44.9933 | Mean Tox ([1]; GLGC ID NO. 13346): 474.6867 | Mean Tox ([1]; GLGC ID NO. 13563): 194.5233 | Mean Tox ([1]; GLGC ID NO. 13614): 51.4367 | Mean Tox ([1]; GLGC ID NO. 13919): 64.7367 | Mean Tox ([1]; GLGC ID NO. 14521): 198.1933 | Mean Tox ([1]; GLGC ID NO. 14934): 171.4667 | Mean Tox ([1]; GLGC ID NO. 15087): 279.6733 | Mean Tox ([1]; GLGC ID NO. 15205): 136.0033 | Mean Tox ([1]; GLGC ID NO. 15403): 546.1933 | Mean Tox ([1]; GLGC ID NO. 15663): 575.4367 | Mean Tox ([1]; GLGC ID NO. 15685): 1989.9867 | Mean Tox ([1]; GLGC ID NO. 15925): 154.8867 | Mean Tox ([1]; GLGC ID NO. 16006): 341.7733 | Mean Tox ([1]; GLGC ID NO. 16024): 520.0167 | Mean Tox ([1]; GLGC ID NO. 16025): 313.1433 | Mean Tox ([1]; GLGC ID NO. 16164): 1717.2267 | Mean Tox ([1]; GLGC ID NO. 16947): 147.5900 | Mean Tox ([1]; GLGC ID NO. 17115): −3.3700 | Mean Tox ([1]; GLGC ID NO. 17365): 113.6667 | Mean Tox ([1]; GLGC ID NO. 17549): 1296.6000 | Mean Tox ([1]; GLGC ID NO. 17956): 167.2833 | Mean Tox ([1]; GLGC ID NO. 18278): 30.2633 | Mean Tox ([1]; GLGC ID NO. 18383): 210.0600 | Mean Tox ([1]; GLGC ID NO. 18498): 412.3833 | Mean Tox ([1]; GLGC ID NO. 18524): 233.6633 | Mean Tox ([1]; GLGC ID NO. 18727): 1450.8800 | Mean Tox ([1]; GLGC ID NO. 18777): 195.2400 | Mean Tox ([1]; GLGC ID NO. 19371): 24.8700 | Mean Tox ([1]; GLGC ID NO. 20586): 44.1067 | Mean Tox ([1]; GLGC ID NO. 20664): 373.3533 | Mean Tox ([1]; GLGC ID NO. 20701): 78.4500 | Mean Tox ([1]; GLGC ID NO. 20755): 2569.4500 | Mean Tox ([1]; GLGC ID NO. 20801): 441.4867 | Mean Tox ([1]; GLGC ID NO. 20939): 971.5300 | Mean Tox ([1]; GLGC ID NO. 21064): 291.1633 | Mean Tox ([1]; GLGC ID NO. 21154): 116.8600 | Mean Tox ([1]; GLGC ID NO. 21747): 330.9267 | Mean Tox ([1]; GLGC ID NO. 21794): 5.9200 | Mean Tox ([1]; GLGC ID NO. 22102): 633.5467 | Mean Tox ([1]; GLGC ID NO. 22310): 316.3067 | Mean Tox ([1]; GLGC ID NO. 22576): 484.4533 | Mean Tox ([1]; GLGC ID NO. 22915): 409.8567 | Mean Tox ([1]; GLGC ID NO. 22994): 83.8300 | Mean Tox ([1]; GLGC ID NO. 23166): 758.8567 | Mean Tox ([1]; GLGC ID NO. 23250): 317.7900 | Mean Tox ([1]; GLGC ID NO. 23521): 60.4533 | Mean Tox ([1]; GLGC ID NO. 23630): 789.8200 | Mean Tox ([1]; GLGC ID NO. 23738): 290.9200 | Mean Tox ([1]; GLGC ID NO. 23860): 310.3067 | Mean Tox ([1]; GLGC ID NO. 24501): 2075.2267 | Mean Tox ([1]; GLGC ID NO. 24554): 25.3833 | Mean Tox ([1]; GLGC ID NO. 24814): 389.9067 | Mean Tox ([1]; GLGC ID NO. 25594): 700.5833 | Mean Tox ([1]; GLGC ID NO. 26184): 126.0933 | serum ALT levels [2]: increased

From patent US7469185B2, “Primary rat hepatocyte toxicity modeling” (Ocimum Biosolutions, Inc., priority 2002, dated 2008)
